Assay results as given in article PMC6668024 (Journal of medicinal chemistry, 2018).

Assays:
[1] = In vivo pharmacokinetics, plasma levels by LC-MS/MS; parameters: species or system male C57BL/6 mice; conditions: for parent compound (4 or 3) in plasma after i.v. dosing of the ester: 2 mg/kg intravenously
[2] = target: T1, Topo I-DNA cleavage complex (Homo sapiens, UniProt P11387); assay: Topo I-mediated DNA cleavage assay; format: biochemical; conditions: EB-containing gel; for Topo I-mediated DNA cleavage (amount of nicked DNA): 100 μM or 50 μM
T1 sequence (P11387 1-765): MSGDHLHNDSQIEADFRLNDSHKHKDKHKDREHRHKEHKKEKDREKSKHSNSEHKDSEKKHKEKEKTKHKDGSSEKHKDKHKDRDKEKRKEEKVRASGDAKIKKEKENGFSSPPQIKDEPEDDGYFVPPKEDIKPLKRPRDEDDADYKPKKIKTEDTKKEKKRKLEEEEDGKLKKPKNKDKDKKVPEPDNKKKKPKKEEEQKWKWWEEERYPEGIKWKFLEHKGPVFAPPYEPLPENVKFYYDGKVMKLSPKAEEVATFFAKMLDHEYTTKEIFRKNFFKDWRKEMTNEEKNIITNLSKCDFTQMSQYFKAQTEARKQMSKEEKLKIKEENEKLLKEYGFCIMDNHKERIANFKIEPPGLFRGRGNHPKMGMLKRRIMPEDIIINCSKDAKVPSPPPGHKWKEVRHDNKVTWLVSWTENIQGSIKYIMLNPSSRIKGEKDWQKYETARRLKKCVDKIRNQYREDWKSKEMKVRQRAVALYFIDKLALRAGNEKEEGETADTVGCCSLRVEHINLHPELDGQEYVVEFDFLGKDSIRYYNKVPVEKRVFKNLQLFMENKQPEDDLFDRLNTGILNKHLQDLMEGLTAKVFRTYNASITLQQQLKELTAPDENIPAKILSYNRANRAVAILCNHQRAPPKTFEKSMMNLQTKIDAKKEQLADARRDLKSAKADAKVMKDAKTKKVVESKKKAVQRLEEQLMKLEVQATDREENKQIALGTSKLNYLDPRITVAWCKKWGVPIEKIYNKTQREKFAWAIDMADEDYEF

[3] = for body weight of treated mice: HepG-2 xenograft mice, treatment for 30 days, doses as in Figure 5
TNF-α = TNF-α in serum, LPS sepsis model; format: in vivo, C57BL/6 mice; conditions: serum 72 h after LPS
Topo I = target: T2, Topo I (Homo sapiens, UniProt P11387); assay: Topo I inhibitory activity assay; format: biochemical
T2 sequence (P11387 1-765): T1 sequence (P11387 1-765)

IL-6 = IL-6 in serum, LPS sepsis model; format: in vivo, C57BL/6 mice; conditions: serum 72 h after LPS
A549 = assay: MTT cytotoxicity assay, A549; format: cell-based, human; conditions: 48 h
MDA-MB-231 = assay: MTT cytotoxicity assay, MDA-MB-231; format: cell-based, human; conditions: MDA-MB-231, MTT, 48 h
MGC80-3 = assay: MTT cytotoxicity assay, MGC80-3; format: cell-based, human; conditions: MGC80-3, MTT, 48 h
HepG-2 = assay: MTT cytotoxicity assay, HepG-2; format: cell-based, human; conditions: HepG-2, MTT, 48 h
Aqueous solubility = conditions: parental compounds
SK-N-SH = assay: MTT cytotoxicity assay, SK-N-SH; format: cell-based, human; conditions: 48 h
SMMC-7721 = assay: MTT cytotoxicity assay, SMMC-7721; format: cell-based, human; conditions: SMMC-7721, MTT, 48 h
MCF-7 = assay: MTT cytotoxicity assay, MCF-7; format: cell-based, human; conditions: MCF-7, MTT, 48 h
SGC-7901 = assay: MTT cytotoxicity assay, SGC-7901; format: cell-based, human; conditions: SGC-7901, MTT, 48 h
KB = assay: MTT cytotoxicity assay, KB; format: cell-based, human; conditions: 48 h
QGY-7703 = assay: MTT cytotoxicity assay, QGY-7703; format: cell-based, human; conditions: QGY-7703, MTT, 48 h
BEL-7402 = assay: MTT cytotoxicity assay, BEL-7402; format: cell-based, human; conditions: BEL-7402, MTT, 48 h
[4] = 50 μM and 100 μM, EB-free gel (Figure 3a, 3b)

## CC[C@@]1(OC(=O)CNC(=O)CCC(=O)O)C(=O)OCc2c1cc1n(c2=O)Cc2cc3c(ccc4oc(C(C)C)nc43)nc2-1 [Compound 9, (S)-4-((2-((8-Ethyl-2-isopropyl-9,12-dioxo-9,11,12,14-tetrahydro-8H-oxazolo[4,5-f]pyrano[3',4':6,7]indolizno[1,2-b]quinolin-8-yl)oxy)-2-oxoethyl)amino)-4-oxobutanoic acid]
[1]; mice
  parent compound (4 or 3) in plasma after i.v. dosing of the ester: not detected
[1]; single oral administration, mice
  concentration in plasma through oral administration: extremely low
[2]
  Topo I-mediated DNA cleavage (amount of nicked DNA): can increase the amount of nicked DNA
[3]
  body weight of treated mice: no major influence on body weight
[3]; daily oral dose 5 mg/kg
  survival of xenograft mice on oral dosing: most mice failed to reach the end point
TNF-α
  expression of TNF-α in mouse serum: suppressed
Topo I; [4]
  Topo I inhibitory activity: weak inhibition
IL-6
  expression of IL-6 in mouse serum: suppressed

## CC[C@@]1(O)C(=O)OCc2c1cc1n(c2=O)Cc2cc3c(ccc4oc(C(C)C)nc43)nc2-1 [Compound 4, (S)-8-Ethyl-8-hydroxy-2-isopropyl-8H-oxazolo[4,5-f]pyrano[3',4':6,7]indolizino[1,2-b]quinoline-9,12(11H,14H)-dione]
physchem
  solubility: < 2 µg/mL
Topo I; 50 μM, EB-free gel (Figure 4)
  Topo I inhibitory activity: weak inhibitor

## CC[C@@]1(O)C(=O)OCc2c1cc1n(c2=O)Cc2cc3c(CN(C)C)c(O)ccc3nc2-1 [Topotecan, reference compound]
[2]
  Topo I-mediated DNA cleavage (amount of nicked DNA): can increase the amount of nicked DNA

## CC[C@@]1(OC(=O)CNC(=O)CCC(=O)O)C(=O)OCc2c1cc1n(c2=O)Cc2cc3c4c(ccc3nc2-1)OC(C(C)C)NC4=O (stereo partly drawn) [Compound 11, 4-((2-(((9S)-9-Ethyl-3-isopropyl-1,10,13-trioxo-1,2,3,9,10,12,13,15-octahydro-[1,3]oxazino[5,6-f]pyrano[3',4':6,7]indolizino[1,2-b]quinolin-9-yl)oxy)-2-oxoethyl)amino)-4-oxobutanoic acid]
[1]; mice
  parent compound (4 or 3) in plasma after i.v. dosing of the ester: very low concentration
[1]; mouse, in vivo, po
  concentration in plasma through oral administration: extremely low
[2]; 50 μM
  Topo I-mediated DNA cleavage (stabilization of cleavage complex): failed to stabilize Topo I-DNA cleavage complex
[3]
  body weight of treated mice: no major influence on body weight
[3]; oral administration compared with the i.v. dosage
  side effects, pathological anatomy of viscera: increases the occurrence of gastrointestinal flatulence
TNF-α
  expression of TNF-α in mouse serum: suppressed
Topo I; [4]
  Topo I inhibitory activity: almost inactive
IL-6
  expression of IL-6 in mouse serum: suppressed

## (9S)-9-Ethyl-9-hydroxy-3-isopropyl-2,3-dihydro-[1,3]oxazino[5,6-f]pyrano[3',4':6,7]indolizino[1,2-b]quinoline-1,10,13(9H,12H,15H)-trione [Compound 3]
A549
  IC50: 2170 nM
MDA-MB-231
  IC50: 1320 nM
MGC80-3
  IC50: 390 nM
HepG-2
  IC50: 1110 nM
Aqueous solubility
  aqueous solubility: < 2 µg/mL
SK-N-SH
  IC50: 325 nM
SMMC-7721
  IC50: > 10000 nM
MCF-7
  IC50: 10800 nM
SGC-7901
  IC50: > 10000 nM
Topo I; 50 μM, EB-free gel (Figure 4)
  Topo I inhibitory activity: high
KB
  IC50: 9760 nM
QGY-7703
  IC50: > 10000 nM
BEL-7402
  IC50: > 10000 nM

## CC[C@@]1(O)C(=O)OCc2c1cc1n(c2=O)Cc2cc3ccccc3nc2-1 [CPT, Camptothecin, reference compound]
[2]
  Topo I-mediated DNA cleavage (amount of nicked DNA): can increase the amount of nicked DNA
Topo I; [4]
  Topo I inhibitory activity: can inhibit Topo I activity
